In patent US20240316051A1, “A PHARMACEUTICAL COMBINATION AND USE THEREOF” (Ascentage Pharma (Suzhou) Co., Ltd., priority 2021, published 2024):

These compounds were tested against T1, EED (1-441)-His protein (Homo sapiens, UniProt O75530) (assay: EED-H3K27Me3 peptide competition binding assay by AlphaScreen). Settings: IC50 class, Table 4B, read-out: Alpha screen.
T1 construct: 20 nM EED (1-441)-His protein
Outline: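 Readout was AlphaScreen emission at 615 nm after 680 nm excitation, with 10 μg/ml final each of streptavidin donor and nickel chelate acceptor beads, 1 h at RT in the dark. Beforehand, compound met the His-tagged EED(1-441) for 15 min and then biotinylated H3K27Me3(19-33) peptide for 30 min; both were added as 20 nM solutions, buffer 25 mM HEPES pH 8, Tween-20, BSA. Percent activity left was fitted to give IC50.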

T1 sequence (O75530 whole entry): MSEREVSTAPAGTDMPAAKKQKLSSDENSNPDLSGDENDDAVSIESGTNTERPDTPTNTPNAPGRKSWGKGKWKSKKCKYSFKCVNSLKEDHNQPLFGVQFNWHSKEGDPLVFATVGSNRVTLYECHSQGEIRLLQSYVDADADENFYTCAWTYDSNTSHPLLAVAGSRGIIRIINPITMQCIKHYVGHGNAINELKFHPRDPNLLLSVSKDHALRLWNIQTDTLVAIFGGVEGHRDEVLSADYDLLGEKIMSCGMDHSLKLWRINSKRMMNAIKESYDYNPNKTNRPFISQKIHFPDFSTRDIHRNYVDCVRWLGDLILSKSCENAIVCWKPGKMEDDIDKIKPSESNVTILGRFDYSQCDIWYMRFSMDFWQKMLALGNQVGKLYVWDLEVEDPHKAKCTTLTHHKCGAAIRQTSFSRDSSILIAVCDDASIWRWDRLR

Row | Compound | IC50 [nM]
1 | Cc1onc2c1Cc1cc(C(F)(F)F)ncc1-c1cnc(NCc3c(F)ccc4c3CCO4)n3cnc-2c13 [E 35, N-((5-fluoro-2,3-dihydrobenzofuran-4-yl)methyl)-5-methyl-8-(trifluoromethyl)-6H-4-oxa-2,3,9,12, 13a-pentaazabenzo[4,5]cyclopenta[7,8]cycloocta [1,2,3-cd]inden-13-amine] | 10 to 100
2 | Cc1cc2c(cn1)-c1cnc(NCc3c(F)ccc4c3CCO4)n3cnc(c13)C(=O)N(C(C)C)C2 [E 2, 12-(((5-fluoro-2,3-dihydrobenzofuran-4-yl)methyl)amino)-4-isopropyl-7-methyl-4,5-dihydro-3H-2,4,8,11,12a-pentaazabenzo[4,5]cycloocta[1,2,3-cd] inden-3-one] | < 10

Results, then the compound that gave them:

Row | IC50 [nM] | Compound
3 | < 10 | O=C1c2ncn3c(NCc4c(F)ccc5c4CCO5)ncc(c23)-c2ccc(C3CCOCC3)nc2CN1CC(F)(F)F [E 45, 12-(((5-fluoro-2,3-dihydrobenzofuran-4-yl)methyl)amino)-7-(tetrahydro-2H-pyran-4-yl)-4-(2,2,2-trifluoroethyl)-4,5-dihydro-3H-2,4,6,11,12a-pentaazabenzo[4,5]cycloocta[1,2,3-cd]inden-3-one]
4 | < 10 | O=C1c2ncn3c(NCc4c(F)ccc5c4CCO5)ncc(c23)-c2ccc(C3CCC3)nc2CN1CC(F)(F)F [E 52, 7-cyclobutyl-12-(((5-fluoro-2,3-dihydrobenzofuran-4-yl)methyl)amino)-4-(2,2,2-trifluoroethyl)-4,5-dihydro-3H-2,4,6,11,12a-pentaazabenzo[4,5] cycloocta[1,2,3-cd]inden-3-one]
5 | 10 to 100 | Cc1ccc2c(n1)CN(CC(F)(F)F)C(=O)c1ncn3c(NCc4c(F)ccc5c4CCCO5)ncc-2c13 [E 39, 12-(((6-fluorochroman-5-yl)methyl)amino)-7-methyl-4-(2,2,2-trifluoroethyl)-4,5-dihydro-3H-2,4,6, 11,12a-pentaazabenzo[4,5]cycloocta[1,2,3-cd] inden-3-one]
6 | < 10 | O=C1c2ncn3c(NCc4c(F)ccc5c4CCO5)ncc(c23)-c2ccc(C3COCCO3)nc2CN1CC(F)(F)F (centres unmarked) [E 48, 7-(1,4-dioxan-2-yl)-12-(((5-fluoro-2,3-dihydrobenzo-furan-4-yl)methyl)amino)-4-(2,2,2-trifluoroethyl)-4,5-dihydro-3H-2,4,6, 11,12a-pentaazabenzo[4,5] cycloocta[1,2,3-cd]inden-3-one]

Same assay, conditions: Table 4A, read-out: Alpha screen

Row | Compound | IC50 [nM]
7 | O=C1OCc2c(F)cccc2-c2cnc(NCc3c(F)ccc4c3CCO4)n3cnc1c23 [Compound 11, 6-fluoro-12-(((5-fluoro-2,3-dihydrobenzofuran-4-yl)methyl)amino)-3H,5H-4-oxa-2,11,12a-triazabenzo [4,5]cycloocta[1,2,3-cd]inden-3-one] | 0.75
8 | O=S1(=O)CCc2cc(F)ccc2-c2cnc(NCc3c(F)ccc4c3CCO4)n3cnc1c23 [Compound 96, 7-fluoro-12-(((5-fluoro-2,3-dihydrobenzofuran-4-yl)methyl)amino)-4,5-dihydro-3-thia-2,11,12a-triazabenzo[4,5]cycloocta[1,2,3-cd]indene 3,3-dioxide] | 21.9
9 | O=C1NCc2cc(C(F)(F)F)ncc2-c2cnc(NCc3c(F)ccc4c3CCO4)n3cnc1c23 [Compound 22, 12-(((5-fluoro-2,3-dihydrobenzofuran-4-yl)methyl)amino)-7-(trifluoromethyl)-4,5-dihydro-3H-2,4,8, 11,12a-pentaazabenzo[4,5]cycloocta[1,2,3-cd] inden-3-one] | 0.67
10 | O=C1NCc2ccc(C(F)(F)F)cc2-c2cnc(NCc3c(F)ccc4c3CCO4)n3cnc1c23 [Compound 26, 12-(((5-fluoro-2,3-dihydrobenzofuran-4-yl)methyl)amino)-8-(trifluoromethyl)-4,5-dihydro-3H-2,4,11, 12a-tetraazabenzo[4,5]cycloocta[1,2,3-cd]inden-3-one] | 9.84
11 | O=C1c2ncn3c(NCc4c(F)ccc5c4CCO5)ncc(c23)-c2cnc(C(F)(F)F)cc2CN1C1CC(F)(F)C1 [Compound 85, 4-(3,3-difluorocyclobutyl)-12-(((5-fluoro-2,3-dihydrobenzofuran-4-yl)methyl)amino)-7-(trifluoro-methyl)-4,5-dihydro-3H-2,4,8,11,12a-pentaazabenzo [4,5]cycloocta[1,2,3-cd]inden-3-one] | 9.82
12 | Cc1ccc2c(n1)CS(=O)(=O)c1ncn3c(NCc4c(F)ccc5c4CCO5)ncc-2c13 [Compound 95, 11-(((5-fluoro-2,3-dihydrobenzofuran-4-yl)methyl)amino)-6-methyl-4H-3-thia-2,5,10,11a-tetraazadibenzo[cd,f]azulene 3,3-dioxide] | 13.1
13 | O=C1OCc2ccccc2-c2cnc(NCc3c(F)ccc4c3CCO4)n3cnc1c23 [Compound 6, 12-(((5-fluoro-2,3-dihydrobenzofuran-4-yl)methyl)amino)-3H,5H-4-oxa-2,11,12a-triazabenzo[4,5] cycloocta[1,2,3-cd]inden-3-one] | 0.19
14 | CC(F)(F)CN1Cc2cc(C(F)(F)F)ncc2-c2cnc(NCc3c(F)ccc4c3CCO4)n3cnc(c23)C1=O [Compound 82, 4-(2,2-difluoropropyl)-12-(((5-fluoro-2,3-dihydrobenzofuran-4-yl)methyl)amino)-7-(trifluoromethyl)-4,5-dihydro-3H-2,4,8,11,12a-pentaazabenzo[4,5] cycloocta[1,2,3-cd]inden-3-one] | 10.5
15 | O=C1NCc2cc(C(F)(F)F)ccc2-c2cnc(NCc3c(F)ccc4c3CCO4)n3cnc1c23 [Compound 19, 12-(((5-fluoro-2,3-dihydrobenzofuran-4-yl)methyl)amino)-7-(trifluoromethyl)-4,5-dihydro-3H-2,4,11, 12a-tetraazabenzo[4,5]cycloocta[1,2,3-cd]inden-3-one] | 1.13
16 | O=C1OCc2cnc(C(F)(F)F)cc2-c2cnc(NCc3c(F)ccc4c3CCO4)n3cnc1c23 [Compound 32, 12-(((5-fluoro-2,3-dihydrobenzofuran-4-yl)methyl)amino)-8-(trifluoromethyl)-3H,5H-4-oxa-2,7,11, 12a-tetraazabenzo[4,5]cycloocta[1,2,3-cd]inden-3-one] | 1.84
17 | Cc1ccc2c(n1)CNC(=O)c1ncn3c(NCc4c(F)ccc5c4CCO5)ncc-2c13 [Compound 21, 12-(((5-fluoro-2,3-dihydrobenzofuran-4-yl)methyl)amino)-7-methyl-4,5-dihydro-3H-2,4,6,11,12a-pentaazabenzo[4,5]cycloocta[1,2,3-cd]inden-3-one] | 0.55
18 | O=C1OCc2cc(OC(F)(F)F)ccc2-c2cnc(NCc3c(F)ccc4c3CCO4)n3cnc1c23 [Compound 31, 12-(((5-fluoro-2,3-dihydrobenzofuran-4-yl)methyl)amino)-7-(trifluoromethoxy)-3H,5H-4-oxa-2,11, 12a-triazabenzo[4,5]cycloocta[1,2,3-cd]inden-3-one] | 0.604
19 | Cc1cccc(F)c1CNc1ncc2c3c(ncn13)COCc1ncccc1-2 [Compound 1, N-(2-fluoro-6-methylbenzyl)-3H,5H-4-oxa-2,6,11, 12a-tetraazabenzo[4,5]cycloocta[1,2,3-cd]inden-1 2-amine] | > 10
20 | O=C1OCc2ccc(C(F)(F)F)nc2-c2cnc(NCc3c(F)ccc4c3CCO4)n3cnc1c23 [Compound 29, 12-(((5-fluoro-2,3-dihydrobenzofuran-4-yl)methyl)amino)-8-(trifluoromethyl)-3H,5H-4-oxa-2,9,11, 12a-tetraazabenzo[4,5]cycloocta[1,2,3-cd]inden-3-one] | 20.7

Further lines, results first:

Row | IC50 [nM] | Compound
21 | 1.44 | CC(C)(F)CN1Cc2cc(C(F)(F)F)ccc2-c2cnc(NCc3c(F)ccc4c3CCO4)n3cnc(c23)C1=O [Compound 62, 12-(((5-fluoro-2,3-dihydrobenzofuran-4-yl)methyl)amino)-4-(2-fluoro-2-methylpropyl)-7-(trifluoromethyl)-4,5-dihydro-3H-2,4, 11,12a-tetraazabenzo [4,5]cycloocta[1,2,3-cd]inden-3-one]
22 | 9.95 | O=C1c2ncn3c(NCc4c(F)ccc5c4CCO5)ncc(c23)-c2ccc(C(F)(F)F)cc2CN1CC(F)(F)F [Compound 83, 12-(((5-fluoro-2,3-dihydrobenzofuran-4-yl)methyl)amino)-4-(2,2,2-trifluoroethyl)-7-(trifluoromethyl)-4,5-dihydro-3H-2,4,11,12a-tetraazabenzo[4,5] cycloocta[1,2,3-cd]inden-3-one]
23 | 4.2 | COCCN1Cc2nc(C(F)(F)F)ccc2-c2cnc(NCc3c(F)ccc4c3CCO4)n3cnc(c23)C1=O [Compound 57, 12-(((5-fluoro-2,3-dihydrobenzofuran-4-yl)methyl)amino)-4-(2-methoxyethyl)-7-(trifluoromethyl)-4,5-dihydro-3H-2,4,6,11,12a-pentaazabenzo[4,5] cycloocta[1,2,3-cd]inden-3-one]
24 | 3.39 | O=C1c2ncn3c(NCc4c(F)ccc5c4CCO5)ncc(c23)-c2cnc(C(F)(F)F)cc2CN1CC1CCOCC1 [Compound 45, 12-(((5-fluoro-2,3-dihydrobenzofuran-4-yl)methyl)amino)-4-((tetrahydro-2H-pyran-4-yl)methyl)-7-(trifluoromethyl)-4,5-dihydro-3H-2,4,8,11,12a-pentaazabenzo[4,5]cycloocta[1,2,3-cd]inden-3-one]
25 | 2.14 | O=C1c2ncn3c(NCc4c(F)ccc5c4CCO5)ncc(c23)-c2ccc(C(F)(F)F)nc2CN1CC1CC1 [Compound 55, 4-(cyclopropylmethyl)-12-(((5-fluoro-2,3-dihydrobenzofuran-4-yl)methyl)amino)-7-(trifluoromethyl)-4,5-dihydro-3H-2,4,6,11,12a-pentaazabenzo[4,5] cycloocta[1,2,3-cd]inden-3-one]
26 | 1.7 | O=C1c2ncn3c(NCc4c(F)ccc5c4CCO5)ncc(c23)-c2ccc(C(F)(F)F)cc2CN1CC(F)F [Compound 81, 4-(2,2-difluoroethyl)-12-(((5-fluoro-2,3-dihydro-benzofuran-4-yl)methyl)amino)-7-(trifluoromethyl)-4,5-dihydro-3H-2,4,11,12a-tetraazabenzo[4,5] cycloocta[1,2,3-cd]inden-3-one]
